Earlier results in patent US20090093463A1, “NOVEL COMPOUNDS OF SUBSTITUTED AND UNSUBTITUTED ADAMANTYL AMIDES” (AGOURON PHARMACEUTICALS INC., priority 2004, published 2009).

Assays:
11-β-hsd-1 [1] = molecular target: T1, 11-β-hsd-1 (Homo sapiens, UniProt P28845); conditions: healthy human volunteers
T1 construct: host or cells: normal subjects (in vivo)

11-β-hsd-1 [2] = molecular target: T1, 11-β-hsd-1; conditions: ingestion, normal subjects

T1 sequence (P28845 whole entry): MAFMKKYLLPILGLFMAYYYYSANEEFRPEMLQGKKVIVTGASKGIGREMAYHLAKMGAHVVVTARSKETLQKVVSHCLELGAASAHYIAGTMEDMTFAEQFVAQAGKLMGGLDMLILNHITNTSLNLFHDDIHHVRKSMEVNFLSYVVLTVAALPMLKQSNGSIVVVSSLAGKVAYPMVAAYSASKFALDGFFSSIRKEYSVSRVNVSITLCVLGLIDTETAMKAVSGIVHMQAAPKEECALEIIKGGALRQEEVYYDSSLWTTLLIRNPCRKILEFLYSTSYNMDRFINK

For CC1(C)[C@@H](OC(=O)CCC(=O)O)CC[C@]2(C)[C@H]3C(=O)C=C4[C@@H]5C[C@@](C)(C(=O)O)CC[C@]5(C)CC[C@@]4(C)[C@]3(C)CC[C@@H]12 [carbenoxolone], the hepatic insulin sensitivity (11-β-hsd-1 [1]) is listed as “improved” and the “reduction of intraocular pressure” value (11-β-hsd-1 [2]) is listed as 20%.
